According to paper PMC2680243 (Cancer research, 2008):

Target: T1, Cdc25A (Homo sapiens, UniProt P30304)
T1 sequence (P30304 1-524): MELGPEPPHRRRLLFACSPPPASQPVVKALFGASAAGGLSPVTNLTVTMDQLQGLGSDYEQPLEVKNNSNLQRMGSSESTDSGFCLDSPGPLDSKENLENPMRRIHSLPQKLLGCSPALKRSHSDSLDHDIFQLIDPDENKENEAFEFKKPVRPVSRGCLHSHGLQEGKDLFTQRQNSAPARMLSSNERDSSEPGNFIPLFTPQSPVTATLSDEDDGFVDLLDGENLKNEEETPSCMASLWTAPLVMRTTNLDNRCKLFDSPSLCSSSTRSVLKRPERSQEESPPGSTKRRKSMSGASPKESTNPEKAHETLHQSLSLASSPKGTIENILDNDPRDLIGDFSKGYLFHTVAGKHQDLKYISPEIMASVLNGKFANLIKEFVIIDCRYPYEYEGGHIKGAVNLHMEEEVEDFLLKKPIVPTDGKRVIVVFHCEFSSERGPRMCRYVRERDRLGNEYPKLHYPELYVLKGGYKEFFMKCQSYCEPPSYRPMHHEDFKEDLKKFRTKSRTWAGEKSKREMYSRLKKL
Test: OMFP phosphatase assay, […] min pretreatment
Format: biochemical

IC50: 22.5 ± 6.2 µM
SMILES: CCOC(=O)[C@@H](N)CSN=O [SNCEE, S-nitrosocysteine ethyl ester]
